Assay results reported in publication PMC9226124, “Macrocycle-stabilization of its interaction with 14-3-3 increases plasma membrane localization and activity of CFTR” (Nature Communications, 2022).
“And” between values parts separate entries of the source, which are not always exact repeats. Identical values can stand only once.

Experiments:
[1] = biological target: T1, FITC-labeled CFTRpS753pS768 peptide (no 14-3-3) (Homo sapiens, UniProt P13569); assay: Dose-response FP control assay in the absence of 14-3-3; assay type: binding; conditions: No 14-3-3
T1 construct: made in house; host or cells: synthetic peptide
T1 sequence (P13569 747-774 limits assumed): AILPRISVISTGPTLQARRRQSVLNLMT
In short: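 Control run without 14-3-3: FITC-CFTR pS753/pS768 peptide (100 nM or 10 nM) with compound titrated in twofold dilutions in 10 mM HEPES pH 7.4, 150 mM NaCl, 0.1% Tween20, 1 mg/mL BSA. Fluorescence polarization read at ex 485/em 535 nm, background subtracted, n = 3. Curves fitted by four-parameter log(agonist) vs. response.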

[2] = biological target: T2, 14-3-3β/CFTRpS753pS768 complex (Homo sapiens, UniProt P13569+P31946); assay: FP assay, 14-3-3β titration at constant compound concentration (apparent KD); assay type: binding
T2 construct: His6 (cleaved yes); made in house; peptide synthetic
T2 sequence (P31946 whole entry): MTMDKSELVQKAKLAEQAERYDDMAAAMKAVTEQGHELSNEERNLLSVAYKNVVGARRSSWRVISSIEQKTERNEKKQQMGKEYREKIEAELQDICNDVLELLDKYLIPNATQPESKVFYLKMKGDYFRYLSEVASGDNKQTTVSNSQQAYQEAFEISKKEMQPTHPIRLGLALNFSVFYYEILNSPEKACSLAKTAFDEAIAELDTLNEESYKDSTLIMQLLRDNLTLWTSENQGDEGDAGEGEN
Experimental: FC-A (100 µM) was added as a positive control and DMSO as the negative control. […] Background polarization was subtracted from all values, n = 3 technical replicates. […] Source data are provided as a Source Data file. […]
The FITC-labeled peptides were dissolved in FP buffer (10 mM HEPES pH 7.4, 150 mM NaCl, 0.1% Tween20, 1 mg/mL BSA) to a final concentration of 100 nM or 10 nM. […] The dilution series were made in 384 Corning Black Round Bottom well plates and their polarization was measured with a Tecan Infinite F500 plate reader (ex. = 485 nm, em. = 535 nm). The method of fitting of the curves was: “log(agonist) vs. response – Variable slope (four parameters)” from GraphPad Prism. The equation is Y = Bottom + (Top-Bottom)/(1 + 10^((LogEC50-X)*HillSlope)).
from the hit validation library.
f the compound, 100 µM FC-A, or both compound and FC-A, 100 µM each. Background polarization was subtracted f
rom all values, n=3 technical replicates.
Source data are provided as a Source Data file.

CN1CC(=O)NC(CCCNC(=N)N)C(=O)NC(CCC(N)=O)C(=O)NC(CCCNC(=N)N)C(=O)NCc2ccccc2-c2cccc(c2)C1 (stereo not drawn) [CY007491]
FP signal ([1]; compound 476.8 pM): 4
FP signal ([1]; compound 953.7 pM): 5
FP signal ([1]; compound 1.90735e-9 M): 5
FP signal ([1]; compound 3.8147e-9 M): 6
FP signal ([1]; compound 7.6294e-9 M): 4
FP signal ([1]; compound 1.52588e-8 M): 6
FP signal ([1]; compound 3.05176e-8 M): 3
FP signal ([1]; compound 6.10352e-8 M): 5
FP signal ([1]; compound 1.2207e-7 M): 8
FP signal ([1]; compound 2.44141e-7 M): 6
FP signal ([1]; compound 4.88281e-7 M): 5
FP signal ([1]; compound 9.76563e-7 M): 5
FP signal ([1]; compound 1.95313e-6 M): 6
FP signal ([1]; compound 3.90625e-6 M): 7
FP signal ([1]; compound 7.8125e-6 M): 7
FP signal ([1]; compound 1.5625e-5 M): 9
FP signal ([1]; compound 3.125e-5 M): 18
FP signal ([1]; compound 6.25e-5 M): 35
FP signal ([1]; compound 0.000125 M): 83
FP signal ([1]; compound 0.00025 M): 142
FP signal ([1]; compound 0.0005 M): 193
FP signal ([1]; compound 0.001 M): 240
Fluorescence polarization signal, 14-3-3β titration ([2]; CY compound (100 μM), 14-3-3β concentration 3.05176e-8 M): 2.667
Fluorescence polarization signal, 14-3-3β titration ([2]; CY compound (100 μM), 14-3-3β concentration 6.10352e-8 M): 5.667 and 3.667 and 4.667
Fluorescence polarization signal, 14-3-3β titration ([2]; CY compound (100 μM), 14-3-3β concentration 2.44141e-7 M): 10.6667 and 8.667
Fluorescence polarization signal, 14-3-3β titration ([2]; CY compound (100 μM), 14-3-3β concentration 4.88281e-7 M): 20.6667 and 17.6667 and 18.6667
Fluorescence polarization signal, 14-3-3β titration ([2]; CY compound (100 μM), 14-3-3β concentration 9.76563e-7 M): 35.6667 and 31.6667 and 32.6667
Fluorescence polarization signal, 14-3-3β titration ([2]; CY compound (100 μM), 14-3-3β concentration 1.95313e-6 M): 46.6667 and 44.6667 and 41.6667
Fluorescence polarization signal, 14-3-3β titration ([2]; CY compound (100 μM), 14-3-3β concentration 3.90625e-6 M): 61.6667 and 57.6667 and 56.6667
Fluorescence polarization signal, 14-3-3β titration ([2]; CY compound (100 μM), 14-3-3β concentration 7.8125e-6 M): 73.6667 and 74.6667 and 72.6667
Fluorescence polarization signal, 14-3-3β titration ([2]; CY compound (100 μM), 14-3-3β concentration 1.5625e-5 M): 84.6667 and 82.6667 and 83.6667
Fluorescence polarization signal, 14-3-3β titration ([2]; CY compound (100 μM), 14-3-3β concentration 3.125e-5 M): 94.6667 and 91.6667 and 92.6667
Fluorescence polarization signal, 14-3-3β titration ([2]; CY compound (100 μM), 14-3-3β concentration 6.25e-5 M): 107.667 and 108.667
Fluorescence polarization signal, 14-3-3β titration ([2]; CY compound (100 μM), 14-3-3β concentration 0.000125 M): 115.667 and 120.667 and 113.667
Fluorescence polarization signal, 14-3-3β titration ([2]; CY compound (100 μM), 14-3-3β concentration 0.00025 M): 128.667 and 129.667
Fluorescence polarization signal, 14-3-3β titration ([2]; CY compound (100 μM), 14-3-3β concentration 0.0005 M): 146.667 and 147.667
Fluorescence polarization signal, 14-3-3β titration ([2]; FC-A + CY compound, 14-3-3β concentration 7.62939e-9 M): 2 and 1
Fluorescence polarization signal, 14-3-3β titration ([2]; FC-A + CY compound, 14-3-3β concentration 6.10352e-8 M): 9 and 13 and 12
Fluorescence polarization signal, 14-3-3β titration ([2]; FC-A + CY compound, 14-3-3β concentration 1.2207e-7 M): 23
Fluorescence polarization signal, 14-3-3β titration ([2]; FC-A + CY compound, 14-3-3β concentration 2.44141e-7 M): 39 and 43 and 40
Fluorescence polarization signal, 14-3-3β titration ([2]; FC-A + CY compound, 14-3-3β concentration 4.88281e-7 M): 61 and 66 and 64
Fluorescence polarization signal, 14-3-3β titration ([2]; FC-A + CY compound, 14-3-3β concentration 9.76563e-7 M): 90 and 91
Fluorescence polarization signal, 14-3-3β titration ([2]; FC-A + CY compound, 14-3-3β concentration 1.95313e-6 M): 115 and 116
Fluorescence polarization signal, 14-3-3β titration ([2]; FC-A + CY compound, 14-3-3β concentration 3.90625e-6 M): 131 and 135 and 137
Fluorescence polarization signal, 14-3-3β titration ([2]; FC-A + CY compound, 14-3-3β concentration 7.8125e-6 M): 145 and 142 and 147
Fluorescence polarization signal, 14-3-3β titration ([2]; FC-A + CY compound, 14-3-3β concentration 1.5625e-5 M): 154 and 157
Fluorescence polarization signal, 14-3-3β titration ([2]; FC-A + CY compound, 14-3-3β concentration 3.125e-5 M): 158 and 155 and 159
Fluorescence polarization signal, 14-3-3β titration ([2]; FC-A + CY compound, 14-3-3β concentration 6.25e-5 M): 165 and 162
Fluorescence polarization signal, 14-3-3β titration ([2]; FC-A + CY compound, 14-3-3β concentration 0.000125 M): 160 and 162 and 164
Fluorescence polarization signal, 14-3-3β titration ([2]; FC-A + CY compound, 14-3-3β concentration 0.00025 M): 164 and 166 and 167
Fluorescence polarization signal, 14-3-3β titration ([2]; FC-A + CY compound, 14-3-3β concentration 0.0005 M): 172 and 174 and 170
